Reference: publication PMC10590383, “Repurposing conformational changes in ANL superfamily enzymes to rapidly generate biosensors for organic and amino acids” (Nature Communications, 2023)

Assay: Dose–response curve of purified […]s with isoleucine
Format: biochemical
Set-up: key to Dose-response, AVE of Repeat 1-3 (Fig. 3 i): normalized ΔF/F0 (fluorescence change over baseline)
Conditions: for fluorescence response of GECFINDER, AVE of 3 repeats: Supplementary Fig. 3 g
Procedure: Fig. 3 Dose–response curves and fluorescence spectrums of […]s. a, c, e, g, i, k Dose–response curve of purified […]s with increasing concentrations of ligand in 100 mM Tris-HCl buffer (pH=7.5). The normalized ΔF/F0 value increased after ligand binding. All data shown are mean ± S.D. (n = 3 biologically independent samples). b, d, f, h, j, l The fluorescence spectra of […]s changed as the ligand concentration increased. All data shown are mean ± S.D. (n = 3 biologically independent samples). Source data are provided as a Source data file.
The study conducted dose–response curve, substrate specificity, and fluorescent spectrum analyses in 100-mM Tris buffer (pH = 7.5), while pH stability experiments were performed in 100-mM Tris buffer at three different pH values (6.5, 7.5, and 8.5) at room temperature. […] protein at a concentration of 0.75 μM, various small molecule concentrations, 1 mM ATP, and 2.5 mM MgCl2 were used in the experiments. Fluorescent signals were detected using a Microplate Reader (Synergy H4, Bio Tek) at an excitation/emission wavelength of 460 nm/510 nm or 480 nm/510 nm. The dose-response curve was determined immediately after the addition of the analyte. The total duration of the measurement was 15 min, with readings taken at one-minute intervals. The dose-response curve was plotted using the fluorescence values obtained after achieving stability in the fluorescence signal. The dose-response curves were fitted using the logistic model LOGISTIC5 available in Origin 2021, which could provide a more adequate fit to asymmetric dose-response data[62],[63]. Excitation spectra were scanned from 300 to 540 nm with a step size of 5 nm, and the emission wavelength was set to 560 nm. Emission spectra were scanned from 470 to 700 nm with a step size of 5 nm, and the excitation wavelength was set to 450 nm. The thermal stability of […] was analyzed using the UNcle multifunctional protein stability analysis system. Measurements were performed in 20 mM MOPS buffer with 2 mM DTT at a sample concentration of 1 mg/mL. Absolute fluorescence quantum yields were measured using an absolute photoluminescence quantum yield spectrometer (FS5, Edinburgh). […]
Ile (μM) Wave le ngth( nm ) Ile (μM) Wave le ngth( nm )
Supplementary Fig. 2 Dose–response curves and fl uorescen ce spectr ums of GEC FINDERs. a and c, Dose– re spons e curves of puri fi ed GECF INDE R-P he1 and 2 with increas ing concen tra tions of phenylalanine (1 nM to 100 μM). The norm alized ΔF/F 0 value increas ed aft er phenylalanine binding (4 60 nm excita tion) . b and d, The fl uore scen ce spect ra of GECF IN DER-P he1 and 2 changed as the phe nylalanine concen tra tion incre ased fro m 1 nM to 100 μM. e and g, Dose–re spon se curv es of puri fied GECF IN DER-Il e1 and 2 with increas ing concen tra tio ns of isoleucine (50 nM to 10 mM). The norm alized ΔF/F 0 value increas ed aft er isoleucine binding (4 80 nm excita tion) . f and h, The fl uore scen ce spect ra of GECF INDE R-Il e1 and 2 change d as the isoleucine concen tration increas ed fro m 0.5 μM to 10 mM. i, Dose–re spon se curv e of puri fi ed GECF INDE R-H is1 with increas ing concen tra tio ns of histid ine (5 nM to 1 mM). The Norm alized ΔF/F 0 increas ed aft er histidine binding (480 nm excita tion). j, The fl uore scen ce spect ra of GECFIN DER-H is1 changed as the histid ine concen tra tion increas ed fro m 5 nM to 1 mM. k, Diffe re nce in fl uore scen ce intensity of GECF INDE R-b enzoic aci d in the pre sence of 10 µM benzoic aci d compare d to the cont ro l (0 µM benzoic aci d). […] (n=3 biological ly independent samples). *p ≤ 0.05, ***p ≤ 0.001, ****p ≤ 0.0001, and n.s. indicat ed no signifi can t diffe re nce (S tude nt’s two-t aile d t-t est). Source data are provi ded as a Source Data file . […]

## CC[C@H](C)[C@H](N)C(=O)O [Ile]
Ile 0.05 μM
  Dose-response, AVE of Repeat 1-3 (Fig. 3 i): 0
  fluorescence response of GECFINDER, AVE of 3 repeats: -6.245e-17
Ile 0.1 μM
  Dose-response, AVE of Repeat 1-3 (Fig. 3 i): 0.02113
  fluorescence response of GECFINDER, AVE of 3 repeats: 0.01149
Ile 0.5 μM
  Dose-response, AVE of Repeat 1-3 (Fig. 3 i): 0.03402
  fluorescence response of GECFINDER, AVE of 3 repeats: 0.02425
Ile 5 μM
  Dose-response, AVE of Repeat 1-3 (Fig. 3 i): 0.05594
  fluorescence response of GECFINDER, AVE of 3 repeats: 0.01608
Ile 50 μM
  Dose-response, AVE of Repeat 1-3 (Fig. 3 i): 0.1628
  fluorescence response of GECFINDER, AVE of 3 repeats: 0.05759
Ile 100 μM
  Dose-response, AVE of Repeat 1-3 (Fig. 3 i): 0.2049
  fluorescence response of GECFINDER, AVE of 3 repeats: 0.08825
Ile 250 μM
  Dose-response, AVE of Repeat 1-3 (Fig. 3 i): 0.2905
  fluorescence response of GECFINDER, AVE of 3 repeats: 0.1283
Ile 500 μM
  Dose-response, AVE of Repeat 1-3 (Fig. 3 i): 0.3097
  fluorescence response of GECFINDER, AVE of 3 repeats: 0.1586
Ile 1000 μM
  Dose-response, AVE of Repeat 1-3 (Fig. 3 i): 0.3698
  fluorescence response of GECFINDER, AVE of 3 repeats: 0.1861
Ile 5000 μM
  Dose-response, AVE of Repeat 1-3 (Fig. 3 i): 0.4681
  fluorescence response of GECFINDER, AVE of 3 repeats: 0.2413
Ile 7500 μM
  Dose-response, AVE of Repeat 1-3 (Fig. 3 i): 0.4489
  fluorescence response of GECFINDER, AVE of 3 repeats: 0.2222
Ile 10000 μM
  Dose-response, AVE of Repeat 1-3 (Fig. 3 i): 0.4411
  fluorescence response of GECFINDER, AVE of 3 repeats: 0.2208
